A short description of series [1]: Inhibition of Trypanosoma brucei rhodesain.
The nature of series [2]: Inhibition of Trypanosoma brucei cathepsin B.
Another series deals with Trypanosoma brucei. Nature of the series: Antitrypanosomal activity against Trypanosoma brucei. Format: functional, organism-based.
For another series, the target named is Procathepsin L (Homo sapiens, UniProt P07711). Put plainly: Inhibition of human cathepsin L.
The next series addresses Cathepsin B (Homo sapiens, UniProt P07858). Put plainly: Inhibition of human cathepsin B.
A short description of series [3]: Therapeutic index, ratio of EC50 for human Raji cells to EC50 for Trypanosoma brucei. To be noted: Raji cells (versus Trypanosoma brucei), read-out: Ratio EC50. Format: cell-based.

Bounds are passed on as bounds.

Broadly, the IC50 is the concentration that inhibits the measured activity by half. The term EC50 denotes the concentration that produces a half-maximal response.

Chain of Procathepsin L (P07711 whole entry): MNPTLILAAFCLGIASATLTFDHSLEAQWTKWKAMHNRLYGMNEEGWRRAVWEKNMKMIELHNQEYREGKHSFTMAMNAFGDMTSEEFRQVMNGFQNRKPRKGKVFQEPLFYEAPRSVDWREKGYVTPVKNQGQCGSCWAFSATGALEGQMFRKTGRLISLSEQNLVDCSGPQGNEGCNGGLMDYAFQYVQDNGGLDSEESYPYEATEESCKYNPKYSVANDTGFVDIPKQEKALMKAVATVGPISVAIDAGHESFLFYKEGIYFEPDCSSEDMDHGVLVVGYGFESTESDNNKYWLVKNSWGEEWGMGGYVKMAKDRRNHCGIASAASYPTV

As for `NC(=S)N/N=C(/CCc1ccccc1)c1cccc(Cl)c1`, the IC50 is 42 nM in series [1], over 25000 nM in series [2], 21 nM against Procathepsin L and 6000 nM against Cathepsin B. In the series with Trypanosoma brucei, this compound yielded an EC50 of 3700 nM. Moreover, in series [3], the selectivity ratio was over 6.7.
Take `NC(=S)N/N=C(/c1cc(Cl)cc(Cl)c1)c1cccs1`: the IC50 in series [1] is 11 nM; in series [2], 450 nM; against Procathepsin L it was 3.6 nM; against Cathepsin B, 300 nM. The same compound yielded an EC50 in the series on Trypanosoma brucei of 7000 nM. Further, the selectivity ratio in series [3] was over 4.
For `NC(=S)N/N=C(/c1cc(C(F)(F)F)cc(C(F)(F)F)c1)c1cccs1`, the IC50 came out at 7 nM in series [1], 150 nM in series [2], 10.1 nM against Procathepsin L and 300 nM at Cathepsin B. This compound also displayed an EC50 in the series on Trypanosoma brucei of 7000 nM. Besides, the selectivity ratio in series [3] is over 4.
For the compound `NC(=S)N/N=C(/CCc1ccccc1)c1cccc(F)c1`, the 50% inhibitory concentration (IC50) in series [1] is 390 nM; in series [2], over 25000 nM; against Procathepsin L, 118 nM; against Cathepsin B, 22000 nM. Also, the EC50 in the series on Trypanosoma brucei amounted to 6000 nM. The selectivity ratio in series [3] was over 4.
Consider `Cc1ccc(/C(=N/NC(N)=S)c2cccc(F)c2)cc1`, for which the IC50 was 89 nM in series [1], over 25000 nM in series [2], 44 nM at Procathepsin L and 4500 nM on Cathepsin B. In the series with Trypanosoma brucei, this compound gave an EC50 of over 10000 nM.
As for `Cc1ccc(/C(=N\NC(N)=S)c2cc(Cl)cc(Cl)c2)cc1`, the IC50 stood at 46 nM in series [1], 6000 nM in series [2], 11 nM at Procathepsin L and 1800 nM against Cathepsin B. Further, the response in the series with Trypanosoma brucei was half-maximal at 1100 nM (EC50). For the same compound, the selectivity ratio in series [3] is over 9.
Turning to `Cc1ccc(/C(=N/NC(N)=S)c2ccccc2)cc1`, the IC50 is 500 nM in series [1], over 25000 nM in series [2], 1020 nM on Procathepsin L and 13000 nM on Cathepsin B. In the series with Trypanosoma brucei, the EC50 was over 10000 nM.
Turning to `NC(=S)N/N=C(/C=C/c1ccccc1)c1cccc(C(F)(F)F)c1`, the IC50 in series [1] was found to be 29 nM; in series [2], 7000 nM; against Procathepsin L, 81 nM; against Cathepsin B, 1700 nM. Also, the EC50 in the series with Trypanosoma brucei came to 2500 nM. Moreover, in series [3], the selectivity ratio was over 10.
With `NC(=S)N/N=C(\CCc1ccccc1)c1cc(Cl)cc(Cl)c1`, the IC50 was 57 nM in series [1], over 25000 nM in series [2], 39 nM on Procathepsin L and 4900 nM against Cathepsin B. Moreover, the EC50 with Trypanosoma brucei stood at 1300 nM. In series [3], the selectivity ratio is over 19.
In the case of `Cc1ccc(/C(=N/NC(N)=S)c2cccc(C(F)(F)F)c2)cc1`, the 50% inhibitory concentration (IC50) worked out at 8 nM in series [1], 210 nM in series [2], 9.4 nM on Procathepsin L and 210 nM against Cathepsin B. The compound also showed an EC50 in the series on Trypanosoma brucei of 1500 nM. Also, in series [3], the selectivity ratio was over 17.
As for `NC(=S)N/N=C(\CCc1ccccc1)c1cc(C(F)(F)F)cc(C(F)(F)F)c1`, the IC50 in series [1] is 53 nM; in series [2], over 25000 nM; against Procathepsin L it was 17 nM; at Cathepsin B it was 3000 nM. The compound also displayed an EC50 in the series on Trypanosoma brucei of 2000 nM. The selectivity ratio in series [3] was over 10.
As for `NC(=S)N/N=C(/CCc1ccccc1)c1ccccc1`, the half-maximal inhibitory concentration (IC50) was 1500 nM in series [1], over 25000 nM in series [2], 910 nM at Procathepsin L and over 25000 nM on Cathepsin B. Besides, the concentration giving a half-maximal response (EC50) in the series on Trypanosoma brucei was over 10000 nM.
On to `Cc1ccc(/C(=N\NC(N)=S)c2cc(C(F)(F)F)cc(C(F)(F)F)c2)cc1` [THIOSEMICARBAZONE STANDARD], for which the IC50 in series [1] was 44 nM; in series [2], 15000 nM; on Procathepsin L it was 7.4 nM; against Cathepsin B, 3300 nM. This compound also yielded an EC50 in the series with Trypanosoma brucei of 1300 nM. Also, the selectivity ratio in series [3] is over 19.
